What all share (format): in vivo
Test [1] deals with Tetranychus urticae (spider mites - ova). The test is described as follows: Contact test, spider mites - ova (TUe), French bean leaf. As to conditions: 144 h, 6 days, read-out: TUE grading of mortality. In a few lines: (§1)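 Each pest was kept on its food plant or foodstuff and exposed, directly or via the medium, to 100 to 500 ppm Product in water containing 0.1% by weight wetting agent. Kill was recorded over one to seven days.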

The next test has as its system Myzus persicae (aphids). Put plainly: Contact test, aphids (MP), Chinese Cabbage leaf. The settings on record: 72 h, 3 days, read-out: MP grading of mortality. In a few lines: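 Aphids on a host plant and/or the plant itself were treated with 100–500 ppm of product, applied from acetone diluted in water containing 0.1% SYNPERONIC NX wetting agent. Mortality was scored usually one to seven days after treatment.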

Test [2] concerns Nilaparvata lugens (brown plant hopper - nymphs). Put plainly: Contact test, brown plant hopper - nymphs (NL), Rice plant. The settings on record: 72 h, 3 days, read-out: NL grading of mortality. In a few lines: as §1
Test [3] deals with Musca domestica (houseflies - adults). The test is described as follows: Knockdown test, houseflies - adults (MD/KD), Cotton wool/sugar. The settings on record: 4 hours, read-out: MD/KD grading of knockdown. In short, it runs like this: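 Product was dissolved in acetone and diluted with water containing 0.1% wetting agent to 100–500 ppm. The flies and/or their food medium were treated with the preparation. Mortality was scored 1–7 days after treatment, with an additional knockdown assessment for houseflies.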

The test system is the same in test [4]. Put plainly: Contact test, houseflies - adults (MD), Cotton wool/sugar. The settings on record: 24 h, 1 day, read-out: MD grading of mortality. In a few lines:
as §1

Test [5] concerns Blattella germanica (cockroach nymphs). Put plainly: Residual test, cockroach nymphs (BG), Plastic pot. As to conditions: 72 h, 3 days, read-out: BG grading of mortality. In a few lines:
as §1

The test system of test [6] is Diabrotica balteata (rootworm larvae). The test is described as follows: Residual test, rootworm larvae (DB), Filter paper/maize seed. As to conditions: 72 h, 3 days, read-out: DB grading of mortality. In a few lines: as §1
Test [7] has as its system Chilo partellus (Maize stemborer - larvae). The test is described as follows: Residual test, Maize stemborer - larvae (CP), Oilseed rape. The settings on record: 72 h, 3 days, read-out: CP grading of mortality. Here is the method:
The activity of the Product was determined using a variety of insect pests. The Product was used in the form of liquid preparations containing from 100 to 500 parts per million (ppm) by weight of the Product. The preparations were made by dissolving the Product in acetone and diluting the solutions with water containing 0.1% by weight of a wetting agent sold under the trade name "SYNPERONIC" NX until the liquid preparations contained the required concentration of the Product. "SYNPERONIC" is a Registered Trade Mark.
The test procedure adopted with regard to each pest was basically the same and comprised supporting a number of the pests on a medium which was usually a host plant or a foodstuff on which the pests feed, and treating either or both the pests and the medium with the preparations. The mortality of the pests was then assessed at periods usually varying from one to seven days after the treatment.
The results of the tests are given in Table III for each of the Products, at the rate in parts per million given in the second column as a grading of mortality designated as A, B or C wherein A indicates 80-100% mortality or knockdown (70-100% for Meloidogyne incognita), B indicates 50-79% mortality knockdown or knockdown (50-69% for Meloidogyne incognita) and C indicates less than 50% mortality or knockdown.
In Table III the pest organism used is designated by a letter code and the pests species, the support medium or food, and the type and duration of test is given in Table II.
(Maize stemborer - larvae)

In test [8] the test system is Tetranychus urticae (spider mites - adult). Put plainly: Contact test, spider mites - adult (TUa), French bean leaf. As to conditions: 72 h, 3 days, read-out: TUA grading of mortality. In short, it runs like this:
as §1

Test [9] has as its system Heliothis virescens (tobacco budworm - larvae). Put plainly: Residual test, tobacco budworm - larvae (HV), Cotton leaf. The settings on record: 72 h, read-out: HV grading of mortality. In short, it runs like this:
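Products applied as acetone solutions diluted in water with 0.1% wetting agent, at 100–500 ppm; pests on host plant or food, with pests and/or medium treated. Mortality or knockdown scored 1–7 days after treatment and graded A (80–100%), B (50–79%) or C (<50%).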

Test [10] concerns Meloidogyne incognita (Tomato root knot eelworm - larvae). Put plainly: Residual test, Tomato root knot eelworm - larvae (MI), Semi in-vitro. The settings on record: 168 h, application rate is half that recorded, 7 days, read-out: MI grading of mortality; for mortality at 125 µg/mL: rate 250 ppm.

Structures are written as SMILES.

What is called mortality is the percentage killed. For the molecule `FC(F)(F)C(=CCCc1cccc(Oc2ccccc2)c1)c1ccc(Br)cc1` [Compound 39, 1,1,1-Trifluoro-2-(4-bromophenyl)-5-(3-phenoxyphenyl)-pent-2-ene], the mortality at 500 ppm in test [1] was less than 50%; with Myzus persicae (aphids), less than 50%; in test [2], less than 50%; in test [4], less than 50%; in test [5], 50 to 79%; in test [6], less than 50%. Besides, the mortality at 500 ppm in test [7] is 80 to 100%. Besides, the pest or weed control at 500 ppm in test [3] is less than 50%.

With `CCOc1ccc(C(=CCCc2cccc(Oc3ccccc3)c2)C(F)(F)C(F)(F)F)cc1` [Compound 10, 3-(4-ethoxyphenyl)-1,1,1,2,2-pentafluoro-6-(3-phenoxyphenyl)hex-3-ene], the mortality at 250 ppm is less than 50% in [8]; less than 50% in test [1]; less than 50% in the test with Myzus persicae (aphids); less than 50% in [2]; less than 50% in [4]; 50 to 79% in [5]. Moreover, the mortality at 250 ppm in test [9], in test [6] and in test [7] was less than 50% throughout. In addition, the pest or weed control at 250 ppm in test [3] was less than 50%. Moreover, the mortality at 125 µg/mL in [10] was less than 50%.

On to `CCOc1ccc(C(CC=Cc2cccc(Oc3ccccc3)c2)C(F)(F)F)cc1` (stereo not drawn) [Compound 31, 1,1,1-trifluoro-2-(4-ethoxyphenyl)-5-(3-phenoxyphenyl)pent-4-ene], for which the mortality at 250 ppm is less than 50% in test [8]; less than 50% in test [1]; 80 to 100% with Myzus persicae (aphids); 80 to 100% in test [2]; 80 to 100% in test [4]; 80 to 100% in test [5]. For the same molecule, the mortality at 250 ppm in test [9], in [6] and in [7] was 80 to 100% in each case. Besides, the pest or weed control at 250 ppm in test [3] is 80 to 100%. The mortality at 125 µg/mL in test [10] was less than 50%.

On to `CCOc1ccc(/C(=C\C=C/c2ccc(F)c(Oc3ccccc3)c2)C(F)(F)F)cc1` [Compound 37, 1,1,1-trifluoro-2-(4-ethoxyphenyl)-5-(4-fluoro-3-phenoxyphenyl)penta-2,4-diene], for which the mortality at 250 ppm was less than 50% in test [8]; less than 50% in [1]; less than 50% in the test on Myzus persicae (aphids); less than 50% in [2]; less than 50% in test [4]; 50 to 79% in [5]. For the same molecule, the mortality at 250 ppm in test [9], in [6] and in test [7] was less than 50% in each case. Also, the pest or weed control at 250 ppm in test [3] is less than 50%. Also, the mortality at 125 µg/mL in test [10] is less than 50%.

Turning to `CCOc1ccc(C(CCCc2cccc(Oc3ccccc3)c2)C(F)(F)C(F)(F)F)cc1` (racemic) [Compound 11, 1,1,1,2,2-Pentafluoro-3-(4-ethoxyphenyl)-6-(3-phenoxyphenyl)hexane], the mortality at 250 ppm (in [8]; in test [1]; with Myzus persicae (aphids); in [2]; in [4]; in [5]) was less than 50% throughout. Also, the mortality at 250 ppm in [9], in test [6] and in test [7] was less than 50% in each case. Also, the pest or weed control at 250 ppm in test [3] fell in the range of 80 to 100%. Further, in test [10], the mortality at 125 µg/mL was less than 50%.

As to `CC(C)(C)c1ccc(C(CCCc2cccc(Oc3ccccc3)c2)C(F)(F)F)cc1` (racemic) [Compound 8, 1,1,1-Trifluoro-2-[4-(2-methylprop-2-yl)phenyl]-5-(3-phenoxyphenyl)pentane], the mortality at 250 ppm in test [8] was less than 50%; in [1], less than 50%; in the test on Myzus persicae (aphids), less than 50%; in test [2] it was less than 50%; in test [4], less than 50%; in test [5] it was 80 to 100%. Moreover, the mortality at 250 ppm in test [9], in test [6] and in test [7] was 80 to 100% each time. Besides, in test [3], the pest or weed control at 250 ppm was less than 50%. Moreover, in [10], the mortality at 125 µg/mL lay in the range of 70 to 100%.

For `CCOc1ccc(C(=CCCc2cccc(Oc3ccccc3)c2)C(F)(F)F)cc1` [Compound 1, E,Z-2-(4-ethoxyphenyl)-5-(3-phenoxyphenyl)-1,1,1-trifluoropent-2-ene], the mortality at 500 ppm (in the test with Myzus persicae (aphids); in test [2]; in test [4]; in [5]; in [9]; in test [6]) was 80 to 100% throughout. For the same molecule, in test [7], the mortality at 500 ppm was in the range of 80 to 100%. For the same molecule, the pest or weed control at 500 ppm in test [3] was 80 to 100%. Also, the mortality at 250 µg/mL in test [10] (rate column 500 ppm) lay within 50 to 69%.

On to `FC(F)(F)c1ccc(C(CCCc2cccc(Oc3ccccc3)c2)C(F)(F)F)cc1` (racemic) [Compound 16, 1,1,1-Trifluoro-2-(4-trifluoromethylphenyl)-5-(3-phenoxyphenyl)pentane], for which the mortality at 250 ppm in [8] was 50 to 79%; in the test on Myzus persicae (aphids) it was 80 to 100%; in test [2], 80 to 100%; in test [4] it was 80 to 100%; in test [5], 80 to 100%; in [9] it was 80 to 100%. Also, the mortality at 250 ppm in test [6] and in [7] was 80 to 100% each time. Further, in test [3], the pest or weed control at 250 ppm lay in the range of 80 to 100%. Further, the mortality at 125 µg/mL in [10] was less than 50%.

Take `FC(F)(F)Oc1ccc(C(CCCc2cccc(Oc3ccccc3)c2)C(F)(F)F)cc1` (racemic) [Compound 9, 1,1,1-Trifluoro-2-(4-trifluoromethoxyphenyl)-5-(3-phenoxyphenyl)pentane]: the mortality at 250 ppm (in [8]; in test [1]; in the test with Myzus persicae (aphids); in [2]; in test [4]; in test [5]) was 80 to 100% in each case. Further, the mortality at 250 ppm in test [9], in test [6] and in test [7] was 80 to 100% each time. Besides, in test [3], the pest or weed control at 250 ppm was 80 to 100%. In addition, the mortality at 125 µg/mL in test [10] was less than 50%.

For the molecule `FC(F)(F)C(CCCc1cccc(Oc2ccccc2)c1)c1ccc(Cl)cc1` (racemic) [Compound 38, 1,1,1-Trifluoro-2-(4-chlorophenyl)-5-(3-phenoxyphenyl)pentane], the mortality at 500 ppm in [8] (500 ppm) is 80 to 100%; in test [1], less than 50%; in the test on Myzus persicae (aphids) it was less than 50%; in test [2], 80 to 100%; in test [4], 50 to 79%; in test [5], 50 to 79%. The mortality at 500 ppm in [6] and in test [7] was 80 to 100% throughout. Also, the pest or weed control at 500 ppm in [3] fell in the range of 50 to 79%.

The values above are taken from patent US4791139A, “Diphenyl ether derivatives and their use as insecticides” (Imperial Chemical Industries PLC, priority 1986, dated 1988).
